The text below walks through data of ChEMBL document CHEMBL1155566, “Antifeedant activity of withanolides from Salpichroa origanifolia on Musca domestica” (J Nat Prod, 2000).

The test system of test [1] is Musca domestica. Briefly: Antifeedant activity against Musca domestica CIPEIN larvae assessed as time needed to pupate 50% at 500 ppm. The class given is functional.
Test [2] relates to Musca domestica. Briefly: Antifeedant activity in Musca domestica CIPEIN larvae assessed as time needed to pupate 50% at 100 ppm. Type of test: functional.
Test [3] relates to Musca domestica. Briefly: Antifeedant activity against Musca domestica CIPEIN larvae assessed as inhibition of larvae development after 18 days. Type of test: functional, organism-based.
For test [4], the system named is Musca domestica. Briefly: Antifeedant activity against Musca domestica CIPEIN larvae assessed as larval mortality at 200 ppm after 18 days. The class given is functional.
Test [5] deals with Musca domestica. Briefly: Antifeedant activity against Musca domestica CIPEIN larvae supplied with high yeast and milk concentration assessed as time needed to pupate 50%. Type of test: functional.
The test system of test [6] is Musca domestica. Briefly: Antifeedant activity against Musca domestica CIPEIN larvae supplied with medium yeast and milk concentration assessed as time needed to pupate 50%. The class given is functional.

Molecules are shown by their SMILES. Activity calls are given as the source filed them. The calls are words filed in the database; no cut-off is given here.

For `CC(=O)Oc1cc([C@H](C)[C@@H]2C[C@@H]3O[C@@H]3[C@H](OC(C)=O)O2)cc2c1[C@@H]1C[C@@H]3O[C@@]34CC=CC(=O)[C@]4(C)[C@H]1CC2`, the result with Musca domestica [1] was Active.
Still for that read-out and setting: as for `C[C@@H](c1ccc2c(c1)CC[C@H]1[C@H]2C[C@@H]2O[C@@]23CC=CC(=O)[C@]13C)[C@@H]1C[C@@H]2O[C@@H]2C(=O)O1`, the entry is “inactive”.
On to `C[C@@H](c1cc(O)c2c(c1)CC[C@H]1[C@H]2C[C@@H]2O[C@@]23CC=CC(=O)[C@]13C)[C@@H]1C[C@@H]2O[C@@H]2[C@H](O)O1` [SALPICHROLIDE G], for which the results for the Activity in the test on Musca domestica [2], in the test on Musca domestica [1] and in the test on Musca domestica [4] were 7.7 days, 8 days and 100%, respectively. For the same compound, the EC50 with Musca domestica [3] was found to be 203 ppm.
On to `C[C@@H](c1ccc2c(c1)CC[C@H]1[C@H]2C[C@@H]2O[C@@]23CC=CC(=O)[C@]13C)[C@@H]1C[C@@H]2O[C@@H]2[C@H](O)O1` [SALPICHROLIDE A], for which the Activity in the test with Musca domestica [2] came to 7.9 days; in the test on Musca domestica [5], 6.9 days; in the test with Musca domestica [6] it was 12.2 days; with Musca domestica [1] it was 10.3 days; with Musca domestica [4], 100%. Besides, in the test with Musca domestica [3], the EC50 turned out to be 290 ppm.
`C[C@@H](c1ccc2c(c1)CC[C@H]1[C@H]2C[C@@H](O)[C@@]2(O)CC=CC(=O)[C@]12C)[C@@H]1C[C@@H]2O[C@@H]2[C@H](O)O1` [SALPICHROLIDE C]: the Activity in the test with Musca domestica [2] amounted to 7.8 days; in the test on Musca domestica [1] it was 8.1 days; in the test on Musca domestica [4] it was 100%. Moreover, the EC50 with Musca domestica [3] is given as 310 ppm.
Take `C[C@@H](c1ccc2c(c1)CC[C@H]1[C@H]2CC(=O)[C@@]2(O)CC=CC(=O)[C@]12C)[C@@H]1C[C@@H]2O[C@@H]2C(=O)O1`: in the test with Musca domestica [1], the result was inactive.
